Counter-ions that a name gives are not always drawn.

By IC90 is commonly meant the concentration needed for an effect of 90%.

For this test, the system named is Acinetobacter baumannii ATCC17961. The test is described as follows: Antimicrobial susceptibility testing: 90% growth inhibitory concentration (IC90) determination, Iso-Sensitest broth, OD 600 nm. The class given is cell-based. The conditions noted are these: 90% growth inhibitory concentration, Acinetobacter baumannii ATCC17961, Iso-Sensitest broth, OD 600 nm over 16 h; read-out: ATCC 17961 IC90. The procedure, abridged:
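Twofold serial dilutions (e.g. 50–0.097 μM final) incubated with ~5×10^5 CFU/ml in Iso-Sensitest broth at 35±2 °C. OD600 read every 20 min for 16 h; IC90 derived from growth inhibition during logarithmic phase.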

Consider `CCc1cc(Nc2nccn3c(-c4ccc(OC)c(F)c4F)cnc23)ccc1C(=O)N[C@@H](C)CNCCN` [Example 219, N-[(1S)-2-(2-aminoethyl-amino)-1-methyl-ethyl]-4-[[3-(2,3-difluoro-4-methoxy-phenyl)imidazo[1,2-a]pyrazin-8-yl]amino]-2-ethyl-benzamide; formic acid], for which the IC90 amounted to 0.58 µM.

As for `CCc1cc(Nc2nccn3c(-c4cc(Cl)c(OC)cc4F)cnc23)ccc1C(=O)NCCOCCN` [Example 220, N-[2-(2-amino-ethoxy)ethyl]-4-[[3-(5-chloro-2-fluoro-4-methoxy-phenyl)imidazo[1,2-a]pyrazin-8-yl]amino]-2-ethyl-benzamide], the IC90 came to 0.08 µM.

`COc1ccc(-c2cnc3c(Nc4ccc(C(=O)NCCCNCCO)c(Cl)c4)nccn23)c(F)c1F` [Example 221, 2-chloro-4-((3-(2,3-difluoro-4-methoxyphenyl)imidazo[1,2-a]pyrazin-8-yl)amino)-N-(3-((2-hydroxyethyl)amino)propyl) benzamide 2-chloro-4-((3-(2,3-difluoro-4-methoxyphenyl)imidazo[1,2-a]pyrazin-8-yl)amino)-N-(3-((2-hydroxyethyl)amino)propyl)benzamide]: the IC90 was 0.08 µM.

With `CCc1cc(Nc2nccn3c(-c4cc(F)c(OC)cc4F)cnc23)ccc1C(=O)NCCOCCN` [Example 222, N-[2-(2-amino-ethoxy)ethyl]-4-[[3-(2,5-difluoro-4-methoxy-phenyl)imidazo[1,2-a]pyrazin-8-yl]amino]-2-ethyl-benzamide], the IC90 amounted to 0.04 µM.

For `CCc1cc(Nc2nccn3c(-c4ccc(OC)c(F)c4F)cnc23)ccc1C(=O)NCCCCCN(C)C` [Example 223, 4-((3-(2,3-difluoro-4-methoxyphenyl)imidazo[1,2-a]pyrazin-8-yl)amino)-N-(5-(dimethylamino)pentyl)-2-ethylbenzamide], the 90% effect concentration (IC90) was 0.03 µM.

For `CCOCCCNC(=O)c1ccc(Nc2nccn3c(-c4ccc(OC)c(F)c4F)cnc23)cc1CC` [Example 224, 4-((3-(2,3-difluoro-4-methoxyphenyl)imidazo[1,2-a]pyrazin-8-yl)amino)-N-(3-ethoxypropyl)-2-ethylbenzamide], the IC90 was 0.18 µM.

On to `C#CCNCCCNC(=O)c1ccc(Nc2nccn3c(-c4ccc(OC)c(F)c4F)cnc23)cc1CC` [Example 225, 4-((3-(2,3-difluoro-4-methoxyphenyl)imidazo[1,2-a]pyrazin-8-yl)amino)-2-ethyl-N-(3-(prop-2-yn-1-ylamino)propyl) benzamide], for which the IC90 turned out to be 0.05 µM.

With `C#CCNCCCCNC(=O)c1ccc(Nc2nccn3c(-c4ccc(OC)c(F)c4F)cnc23)cc1CC` [Example 227, 4-[[3-(2,3-difluoro-4-methoxy-phenyl)imidazo[1,2-a]pyrazin-8-yl]amino]-2-ethyl-N-[4-(prop-2-ynylamino)butyl]benzamide], the IC90 turned out to be 0.03 µM.

For the compound `CCc1cc(Nc2nccn3c(-c4ccc(OC)c(F)c4F)cnc23)ccc1C(=O)N[C@H](C)CNCCCCNCCCN` [Example 228, (R)-N-(1-((4-((3-aminopropyl)amino)butyl)amino)propan-2-yl)-4-((3-(2,3-difluoro-4-methoxyphenyl)imidazo[1,2-a]pyrazin-8-yl)amino)-2-ethylbenzamide trihydrochloride], the IC90 is 0.51 µM.

`CCc1cc(Nc2nccn3c(-c4ccc(OC)cc4C(F)F)cnc23)ccc1C(=O)NCCOCCN` [Example 229, N-[2-(2-amino-ethoxy)ethyl]-4-[[3-[2-(difluoro-methyl)-4-methoxy-phenyl]imidazo [1,2-a]pyrazin-8-yl]amino]-2-ethyl-benzamide]: the IC90 came to 0.04 µM.

Consider `CCc1cc(Nc2nccn3c(-c4ccc(OC)c(F)c4C(F)(F)F)cnc23)ccc1C(=O)NCCOCCN` [Example 231], for which the IC90 worked out at 0.06 µM.

Values taken from US20230017532A1 (Hoffmann-La Roche Inc., priority 2018, published 2023).
